Among the test systems are UACC-62 melanoma; CCRF-CEM leukemia; IGROV1 ovarian; SK-MEL-28 melanoma; MCF7 breast; BT-549 breast; HT29 colon; COLO 205 colon; M14 melanoma; SNB-19 CNS; NCI-H23 lung; SF-268 CNS; SK-MEL-2 melanoma; OVCAR-3 ovarian; SF-539 CNS; UO-31 renal; SF-295 CNS; MDA-MB-435; SNB-75 CNS.
Common to all, as to assay: NCI-60 cell line screen, 48 h

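A five-concentration, 48-hour dose response in 96-well plates underlies each endpoint, interpolated linearly between surrounding concentrations. TGI: concentration producing complete growth inhibition.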 Where a SMILES comes first, the peptide text is derived from it. [ ]: non-standard residue; d: D form. The star is where a group is joined. Bn2Val = CC(C)[C@@H](C(=O)*)N(Cc1ccccc1)Cc1ccccc1; NHPiperonyl = c1cc2c(cc1CN*)OCO2; NMeV = CN[C@H](C(=O)O)C(C)C; dNMeA = CN[C@H](C)C(=O)O

For `CN(C)CCn1c2c(c3ccccc31)CCc1ccccc1-2`, the TGI with UACC-62 melanoma was 25.9 µM; in the assay with CCRF-CEM leukemia it was 44.6 µM; with IGROV1 ovarian, 21.8 µM; with SK-MEL-28 melanoma it was 29.9 µM; in the assay on MCF7 breast it was 30.5 µM; in the assay with BT-549 breast, 27.8 µM. The TGI in the assay with HT29 colon was 21.1 µM; with COLO 205 colon, 25.6 µM; in the assay with M14 melanoma it was 26.3 µM; with SNB-19 CNS, 33.5 µM; with NCI-H23 lung, 31.4 µM; in the assay on SF-268 CNS, 32.3 µM. For the same compound, the TGI in the assay with SK-MEL-2 melanoma was determined as 28.6 µM; in the assay with OVCAR-3 ovarian it was 27.7 µM; in the assay on SF-539 CNS it was 26.2 µM; in the assay with UO-31 renal, 26.8 µM; with SF-295 CNS, 30.6 µM; with MDA-MB-435, 37.7 µM.

On to `O=C1CC(C(O)C(O)C(O)CO)CC(=O)N1` (stereo not given), for which the TGI in the assay on CCRF-CEM leukemia, in the assay on IGROV1 ovarian, in the assay with SK-MEL-28 melanoma, in the assay on MCF7 breast, in the assay on SNB-75 CNS and in the assay with BT-549 breast was > 100 µM in each case. Also, the TGI with HT29 colon, with COLO 205 colon, in the assay with M14 melanoma, in the assay on SNB-19 CNS, in the assay with NCI-H23 lung and in the assay on SF-268 CNS was > 100 µM throughout. The TGI with OVCAR-3 ovarian, with SF-539 CNS, in the assay on UO-31 renal, in the assay with SF-295 CNS and in the assay with MDA-MB-435 was > 100 µM each time.

Consider `CCC(C#N)NCc1ccc(CNC(C#N)CC)cc1` (stereo not given), for which the TGI in the assay with UACC-62 melanoma, in the assay on CCRF-CEM leukemia, with IGROV1 ovarian, in the assay on SK-MEL-28 melanoma, with MCF7 breast and in the assay with BT-549 breast was > 100 µM throughout. In addition, the TGI in the assay with HT29 colon, with COLO 205 colon, in the assay on M14 melanoma, with SNB-19 CNS, in the assay with NCI-H23 lung and in the assay with SF-268 CNS was > 100 µM each time. Moreover, the TGI with SK-MEL-2 melanoma, with OVCAR-3 ovarian, in the assay on SF-539 CNS, with UO-31 renal, with SF-295 CNS and with MDA-MB-435 was > 100 µM throughout.

As to `COC1CC(=O)C2C(=O)N(c3ccccc3)C(=O)C23C(C(=O)c2ccccc2)=C(C)NC13O` (stereo not given), the TGI was 31.3 µM in the assay with UACC-62 melanoma; 28.9 µM in the assay on CCRF-CEM leukemia; 27.5 µM in the assay on IGROV1 ovarian; 23.6 µM in the assay on SK-MEL-28 melanoma; 16.7 µM with MCF7 breast; > 100 µM in the assay with BT-549 breast. Besides, the TGI was 34.2 µM in the assay with HT29 colon; 25.1 µM with COLO 205 colon; 35.5 µM with M14 melanoma; 51.1 µM in the assay with SNB-19 CNS; 46.3 µM in the assay on NCI-H23 lung; 22.6 µM in the assay with SF-268 CNS. Also, the TGI in the assay with SK-MEL-2 melanoma was 33.6 µM; in the assay with OVCAR-3 ovarian it was 8.12 µM; with SF-539 CNS, 21.8 µM; in the assay with UO-31 renal, 40.9 µM; in the assay on SF-295 CNS it was > 100 µM; with MDA-MB-435, 40.9 µM.

Consider `COC(=O)c1c(O)ccc2c1c1cc3ccccc3c(O)c1n2Cc1ccccc1Cl`, for which the TGI with UACC-62 melanoma is 65.4 µM; in the assay on CCRF-CEM leukemia it was > 100 µM; in the assay on IGROV1 ovarian, 44.8 µM; with SK-MEL-28 melanoma, 46.4 µM; in the assay with MCF7 breast, > 100 µM; in the assay with BT-549 breast, 91.7 µM. In addition, the TGI in the assay with HT29 colon is 25 µM; with COLO 205 colon, 30.4 µM; in the assay with M14 melanoma, 59.1 µM; with SNB-19 CNS it was > 100 µM; in the assay on NCI-H23 lung it was 46.2 µM; in the assay with SF-268 CNS, 97.7 µM. Also, the TGI came out at 40.7 µM with SK-MEL-2 melanoma; 39.8 µM in the assay on OVCAR-3 ovarian; 33.7 µM in the assay with SF-539 CNS; 64.1 µM with UO-31 renal; 40.3 µM in the assay with SF-295 CNS; 40.3 µM in the assay with MDA-MB-435.

With `CC(C)[C@H](NC(=O)[C@H](C(C)C)N(Cc1ccccc1)Cc1ccccc1)C(=O)N(C)[C@H](C(=O)N1CCC[C@H]1C(=O)N(C)[C@H](C)C(=O)NCc1ccc2c(c1)OCO2)C(C)C` (Bn2Val-V[NMeV]P[dNMeA]-NHPiperonyl), the TGI is > 74.2 µM in the assay with UACC-62 melanoma; 8.72 µM with CCRF-CEM leukemia; > 100 µM in the assay on IGROV1 ovarian; > 100 µM with SK-MEL-28 melanoma; 7.55 µM in the assay on MCF7 breast; 57.5 µM in the assay with BT-549 breast. Also, the TGI with HT29 colon is 9.04 µM; with M14 melanoma, > 100 µM; in the assay with SNB-19 CNS it was > 100 µM; in the assay with NCI-H23 lung it was > 100 µM; in the assay with SF-268 CNS, > 74.5 µM; in the assay on SK-MEL-2 melanoma, 25.5 µM. Moreover, the TGI in the assay with OVCAR-3 ovarian was 57.9 µM; with SF-539 CNS it was 11.5 µM; in the assay on UO-31 renal, > 100 µM; in the assay with SF-295 CNS, > 100 µM; in the assay with MDA-MB-435 it was > 96.4 µM.

On to `CCCCCCCCCCCCCCCCOP(=O)(O)OP(=O)(O)OCC1OC(n2cnc3c(N)ncnc32)C(O)C1O` (stereo not given), for which the TGI in the assay on UACC-62 melanoma is > 100 µM; with CCRF-CEM leukemia it was 86.6 µM; with IGROV1 ovarian, > 100 µM; with SK-MEL-28 melanoma, 64 µM; in the assay on MCF7 breast, > 100 µM; in the assay on SNB-75 CNS it was 61.8 µM. The TGI is 36.9 µM with BT-549 breast; > 100 µM in the assay on HT29 colon; > 100 µM with COLO 205 colon; > 100 µM with M14 melanoma; > 100 µM with SNB-19 CNS; > 100 µM with NCI-H23 lung. Further, the TGI in the assay on SF-268 CNS, in the assay with SK-MEL-2 melanoma, in the assay on OVCAR-3 ovarian, with UO-31 renal and in the assay with MDA-MB-435 was > 100 µM throughout.

In the case of `Cc1nc2ccc(F)cc2c2c1CCN2c1ccccc1`, the TGI with UACC-62 melanoma is 27.4 µM; with CCRF-CEM leukemia it was 53.2 µM; in the assay with IGROV1 ovarian, > 100 µM; in the assay with SK-MEL-28 melanoma it was 34.3 µM; with MCF7 breast, 64.7 µM; in the assay on SNB-75 CNS, 79.1 µM. Also, the TGI was 44.2 µM with BT-549 breast; > 100 µM in the assay with HT29 colon; 27.1 µM with COLO 205 colon; > 100 µM in the assay with SNB-19 CNS; 52.9 µM in the assay on NCI-H23 lung; > 100 µM with SF-268 CNS. In addition, the TGI with OVCAR-3 ovarian is > 100 µM; in the assay with SF-539 CNS, 44 µM; in the assay on UO-31 renal it was 68.1 µM; in the assay with SF-295 CNS, 34.4 µM; in the assay with MDA-MB-435 it was 32.8 µM.

For `O=C1CSC(c2c[nH]c3ccccc23)N1c1cccc([N+](=O)[O-])c1` (stereo not given), the TGI with UACC-62 melanoma, in the assay with CCRF-CEM leukemia, with IGROV1 ovarian, in the assay on SK-MEL-28 melanoma, with MCF7 breast and with SNB-75 CNS was > 100 µM throughout. The TGI in the assay with BT-549 breast, in the assay on HT29 colon, with COLO 205 colon, with M14 melanoma, in the assay on SNB-19 CNS and with NCI-H23 lung was > 100 µM in each case. For the same compound, the TGI with SF-268 CNS, in the assay on OVCAR-3 ovarian, in the assay on SF-539 CNS, with UO-31 renal, with SF-295 CNS and in the assay with MDA-MB-435 was > 100 µM in each case.

Regarding `Cc1ccc(N/C(=C(/C(Cl)=C(Cl)Cl)[N+](=O)[O-])n2nnc3ccccc32)cc1`, the TGI with CCRF-CEM leukemia was 64.5 µM; in the assay on SK-MEL-28 melanoma, 33.8 µM; with MCF7 breast, > 100 µM; in the assay with SNB-75 CNS it was 35.4 µM; with BT-549 breast, 37.6 µM; in the assay with HT29 colon, 42 µM. The TGI turned out to be 28.4 µM in the assay with COLO 205 colon; 31.7 µM in the assay with M14 melanoma; 33.9 µM in the assay with SNB-19 CNS; 43.8 µM in the assay on NCI-H23 lung; 36.8 µM with SF-268 CNS; 35.5 µM in the assay on SK-MEL-2 melanoma. In addition, the TGI in the assay with OVCAR-3 ovarian worked out at 34.3 µM; in the assay with SF-539 CNS, 31.3 µM; in the assay with UO-31 renal it was 30.2 µM; with SF-295 CNS it was 36.7 µM; in the assay on MDA-MB-435 it was 40.2 µM.

On to `O=P1(N(CCCl)CCCl)Oc2c(Cl)cc(Cl)c(Cl)c2Cc2c(Cl)c(Cl)cc(Cl)c2O1`, for which the TGI with UACC-62 melanoma, with CCRF-CEM leukemia, in the assay on SK-MEL-28 melanoma, in the assay on MCF7 breast, in the assay on SNB-75 CNS and with BT-549 breast was > 100 µM throughout. Further, the TGI in the assay on HT29 colon was > 100 µM; with COLO 205 colon, 45.7 µM; in the assay on M14 melanoma, > 100 µM; in the assay on NCI-H23 lung it was > 100 µM; with SF-268 CNS it was > 100 µM; with SK-MEL-2 melanoma it was 74.5 µM. In addition, the TGI in the assay on OVCAR-3 ovarian, in the assay with SF-539 CNS, with UO-31 renal, in the assay on SF-295 CNS and in the assay with MDA-MB-435 was > 100 µM each time.

Take `Clc1ccc(/C=c2\nc(-c3ccccc3)n3c2nc2ccccc23)cc1`: the TGI with UACC-62 melanoma is > 100 µM; with CCRF-CEM leukemia, > 100 µM; in the assay with IGROV1 ovarian, > 100 µM; in the assay on SK-MEL-28 melanoma, 0.952 µM; in the assay on MCF7 breast it was > 100 µM; in the assay with BT-549 breast it was > 100 µM. In addition, the TGI in the assay on HT29 colon, in the assay with COLO 205 colon, in the assay on M14 melanoma, in the assay with SNB-19 CNS, in the assay on NCI-H23 lung and in the assay on SF-268 CNS was > 100 µM each time. Moreover, the TGI is > 100 µM in the assay with SK-MEL-2 melanoma; > 100 µM with OVCAR-3 ovarian; 52.2 µM in the assay with SF-539 CNS; > 100 µM in the assay with UO-31 renal; > 100 µM with SF-295 CNS; > 100 µM with MDA-MB-435.
